The results in this text go back to ChEMBL document CHEMBL6092167, “Phosphorylation as an Effective Tool to Improve Stability and Reduce Toxicity of Antimicrobial Peptides” (J Med Chem, 2024).

In experiment [1] the test system is Staphylococcus aureus. The experiment is described as follows: Antibacterial activity against Staphylococcus aureus ATCC 25923 preincubated for 6 hrs in presence of trypsin followed by heat inactivation for 15 mins prior to bacterial addition and measured after 18 to 24 hrs by microplate reader assay. Format: functional, organism-based. The following applies: time 18-24 hrs.

For experiment [2], the system named is Klebsiella pneumoniae. Briefly: Antibacterial activity against Klebsiella pneumoniae 700603 preincubated for 6 hrs in presence of chymotrypsin followed by heat inactivation for 15 mins prior to bacterial addition and measured after 18 to 24 hrs by microplate reader assay. Format: functional, organism-based. The following applies: time 18-24 hrs.
The subject of experiment [3] is Klebsiella pneumoniae. The experiment is described as follows: Antibacterial activity against Klebsiella pneumoniae ATCC 700603 infected in BALB/c mouse lung infection model assessed as reduction in pulmonary tissue bleeding at 2.46 mg/kg, ip administered twice daily for 3 days and measured after 7 days. Format: functional, organism-based. The following applies: time 10.0 day.

The subject of experiment [4] is Staphylococcus aureus. The experiment is described as follows: Antibacterial activity against Staphylococcus aureus ATCC 25923 preincubated for 6 hrs in presence of chymotrypsin followed by heat inactivation for 15 mins prior to bacterial addition and measured after 18 to 24 hrs by microplate reader assay. Format: functional, organism-based. The following applies: time 18-24 hrs.

For experiment [5], the system named is Escherichia coli. Briefly: Antibiofilm activity against Escherichia coli ATCC 25922 assessed as eradication of preformed biofilms at 4 times MIC incubated for 24 hrs by crystal violet staining based assay. Format: functional, organism-based.
Experiment [6] concerns Pseudomonas aeruginosa. Briefly: Antibiofilm activity against Pseudomonas aeruginosa ATCC 27853 assessed as eradication of preformed biofilms at 4 times MIC incubated for 24 hrs by crystal violet staining based assay. Format: functional, organism-based.
Experiment [7] deals with Klebsiella pneumoniae. The experiment is described as follows: Antibacterial activity against Klebsiella pneumoniae 700603 preincubated for 6 hrs in presence of trypsin followed by heat inactivation for 15 mins prior to bacterial addition and measured after 18 to 24 hrs by microplate reader assay. As to conditions: time 18-24 hrs. Format: functional, organism-based.
For experiment [8], the system named is Klebsiella pneumoniae. Briefly: Antibiofilm activity against Klebsiella pneumoniae ATCC 700603 assessed as eradication of preformed biofilms at 4 times MIC incubated for 24 hrs by crystal violet staining based assay. Format: functional, organism-based.
In experiment [9] the test system is Klebsiella pneumoniae. Briefly: Antibacterial activity against Klebsiella pneumoniae ATCC 700603 infected in BALB/c mouse lung infection model assessed as reduction in alveolar contraction at 2.46 mg/kg, ip administered twice daily for 3 days and measured after 7 days. Format: functional, organism-based. The following applies: time 10.0 day.
Experiment [10] has as its system Klebsiella pneumoniae. The experiment is described as follows: Antibacterial activity against Klebsiella pneumoniae ATCC 700603 infected in BALB/c mouse lung infection model assessed as reduction in hepatic hemorrhage at 2.46 mg/kg, ip administered twice daily for 3 days and measured after 7 days. The following applies: time 10.0 day. Format: functional, organism-based.

In another experiment the test system is Acinetobacter baumannii. Briefly: Antibacterial activity against Acinetobacter baumannii ATCC 19606 incubated for 18 to 24 hrs by broth microdilution method. Format: functional. The following applies: time 18-24 hrs. In general terms: Dilution methods test growth across graded concentrations, often in twofold steps.
Experiment [11] concerns Pseudomonas aeruginosa. The experiment is described as follows: Antibacterial activity against Pseudomonas aeruginosa 119 incubated for 18 to 24 hrs by broth microdilution method. Format: functional. As to conditions: time 18-24 hrs.
The test system of experiment [12] is Klebsiella pneumoniae. Briefly: Drug resistance development in Klebsiella pneumoniae ATCC 700603 assessed as fold increase in MIC measured after 7 passage. Format: functional.
The next experiment has as its system Bacillus subtilis. Briefly: Antibacterial activity against Bacillus subtilis ATCC 23857 incubated for 18 to 24 hrs by broth microdilution method. Format: functional. As to conditions: time 18-24 hrs.
Experiment [13] has as its system Staphylococcus aureus. The experiment is described as follows: Antibacterial activity against methicillin resistant Staphylococcus aureus 48 incubated for 18 to 24 hrs by broth microdilution method. Format: functional. As to conditions: time 18-24 hrs.
In experiment [14] the test system is Staphylococcus aureus. Briefly: Antibacterial activity against Staphylococcus aureus ATCC 25923 incubated for 18 to 24 hrs by broth microdilution method. Format: functional. The following applies: time 18-24 hrs.
Experiment [15] concerns Escherichia coli. Briefly: Antibacterial activity against Escherichia coli ATCC 25922 incubated for 18 to 24 hrs by broth microdilution method. The following applies: time 18-24 hrs. Format: functional.
In experiment [16] the test system is Escherichia coli. The experiment is described as follows: Antibacterial activity against Escherichia coli 780 incubated for 18 to 24 hrs by broth microdilution method. Format: functional. As to conditions: time 18-24 hrs.
For experiment [17], the system named is Staphylococcus aureus. The experiment is described as follows: Antibacterial activity against Staphylococcus aureus 794 incubated for 18 to 24 hrs by broth microdilution method. Format: functional. The following applies: time 18-24 hrs.
Experiment [18] deals with Pseudomonas aeruginosa. The experiment is described as follows: Antibacterial activity against Pseudomonas aeruginosa ATCC 27853 incubated for 18 to 24 hrs by broth microdilution method. Format: functional. As to conditions: time 18-24 hrs.
Experiment [19] has as its system Staphylococcus aureus. Briefly: Antibacterial activity against methicillin resistant Staphylococcus aureus ATCC 33591 incubated for 18 to 24 hrs by broth microdilution method. Format: functional. As to conditions: time 18-24 hrs.
In experiment [20] the test system is Klebsiella pneumoniae. Briefly: Antibacterial activity against Klebsiella pneumoniae ATCC 700603 incubated for 18 to 24 hrs by broth microdilution method. Format: functional. The following applies: time 18-24 hrs.
For experiment [21], the system named is Escherichia coli. Briefly: Antibacterial activity against Escherichia coli 850 incubated for 18 to 24 hrs by broth microdilution method. Format: functional. The following applies: time 18-24 hrs.
The test system of experiment [22] is Staphylococcus aureus. The experiment is described as follows: Antibiofilm activity against Staphylococcus aureus ATCC 25923 assessed as eradication of preformed biofilms at 4 times MIC incubated for 24 hrs by crystal violet staining based assay. Format: functional, organism-based.
The test system of experiment [23] is Staphylococcus aureus. The experiment is described as follows: Inhibition of biofilm formation in Staphylococcus aureus ATCC 25923 at 2 times MIC incubated for 24 hrs by crystal violet staining based assay. Format: functional, organism-based.
Experiment [24] deals with Staphylococcus aureus. The experiment is described as follows: Bactericidal activity against Staphylococcus aureus ATCC 25923 at 2 times MIC incubated for 24 hrs by time kill assay. Format: functional.

What is called MIC is the lowest concentration that inhibits growth of the organism. A higher MIC goes with weaker potency.

Values after ≈ are worked out from the molar mass of the structure shown. Active and inactive are the calls of the source. The rule behind the calls is not given here. Positions of bridges follow the written chain, without caps; N, C: chain ends. Non-standard residues stand in square brackets, D forms with d. Residues, ends and D or L forms follow the SMILES beside them. *: point of attachment. X1 = CC[C@H](C)CCCCC(=O)*; dDab = NCC[C@@H](N)C(=O)O; Dab = NCC[C@H](N)C(=O)O

Consider `CC(C)CCCCC(=O)N[C@@H](CCN)C(=O)N[C@H](C(=O)N[C@@H](CCN)C(=O)N[C@H]1CCNC(=O)[C@H]([C@@H](C)O)NC(=O)[C@H](CCN)NC(=O)[C@H](CCN)NC(=O)[C@H](CC(C)C)NC(=O)[C@@H](Cc2ccccc2)NC(=O)[C@@H](CCN)NC1=O)[C@@H](C)O.CC[C@H](C)CCCCC(=O)N[C@@H](CCN)C(=O)N[C@H](C(=O)N[C@@H](CCN)C(=O)N[C@H]1CCNC(=O)[C@H]([C@@H](C)O)NC(=O)[C@H](CCN)NC(=O)[C@H](CCN)NC(=O)[C@H](CC(C)C)NC(=O)[C@@H](Cc2ccccc2)NC(=O)[C@@H](CCN)NC1=O)[C@@H](C)O` (X1-[Dab]T[Dab][Dab][dDab][dF]L[Dab][Dab]T; lactam 4-C), for which the Activity result in the experiment on Staphylococcus aureus [1], in the experiment with Klebsiella pneumoniae [2], with Staphylococcus aureus [4] and in the experiment on Klebsiella pneumoniae [7] was “Active; High Enzymatic Stability” each time. Also, the result in the experiment on Klebsiella pneumoniae [3], in the experiment with Klebsiella pneumoniae [9] and in the experiment on Klebsiella pneumoniae [10] was inactive. Also, the result in the experiment on Escherichia coli [5], in the experiment with Pseudomonas aeruginosa [6] and in the experiment with Klebsiella pneumoniae [8] was Active.

Regarding `NC[C@H]1O[C@H](O[C@H]2[C@H](O)[C@@H](O[C@H]3O[C@H](CO)[C@@H](O)[C@H](N)[C@H]3O)[C@H](N)C[C@@H]2N)[C@H](O)[C@@H](O)[C@@H]1O` [KANAMYCIN], the MIC is 8 µM (≈ 3.88 µg/mL) in the experiment with Acinetobacter baumannii; 64 µM (≈ 31 µg/mL) in the experiment with Pseudomonas aeruginosa [11]; under 1 µM against Bacillus subtilis; over 128 µM in the experiment with Staphylococcus aureus [13]; under 1 µM with Staphylococcus aureus [14]; 8 µM (≈ 3.88 µg/mL) against Escherichia coli [15]. The minimal inhibitory concentration (MIC) against Escherichia coli [16] was 32 µM (≈ 15.5 µg/mL); in the experiment with Staphylococcus aureus [17], 64 µM (≈ 31 µg/mL); against Pseudomonas aeruginosa [18], over 128 µM; with Staphylococcus aureus [19], over 128 µM; against Klebsiella pneumoniae [20], 32 µM (≈ 15.5 µg/mL); against Escherichia coli [21], over 128 µM. For the same molecule, in the experiment with Klebsiella pneumoniae [12], the “fold change (FC)” value is 128.

As for `CN[C@H](CC(C)C)C(=O)N[C@H]1C(=O)N[C@@H](CC(N)=O)C(=O)N[C@H]2C(=O)N[C@H]3C(=O)N[C@H](C(=O)N[C@H](C(=O)O)c4cc(O)cc(O)c4-c4cc3ccc4O)[C@H](O)c3ccc(c(Cl)c3)Oc3cc2cc(c3O[C@@H]2O[C@H](CO)[C@@H](O)[C@H](O)[C@H]2O[C@H]2C[C@](C)(N)[C@H](O)[C@H](C)O2)Oc2ccc(cc2Cl)[C@H]1O` [VANCOMYCIN], the Activity result in the experiment on Staphylococcus aureus [22] is listed as “Active; Showed Poor Efficacy”; in the experiment with Staphylococcus aureus [24] it was 100%. Further, the inhibition result with Staphylococcus aureus [23] is “Active”. Further, the MIC against Acinetobacter baumannii was 64 µM (≈ 92.8 µg/mL); in the experiment on Pseudomonas aeruginosa [11] it was over 128 µM; in the experiment with Bacillus subtilis, under 1 µM; in the experiment on Staphylococcus aureus [13], under 1 µM; against Staphylococcus aureus [14], under 1 µM; against Escherichia coli [15], 128 µM (≈ 186 µg/mL). Also, the MIC against Escherichia coli [16] is 128 µM (≈ 186 µg/mL); in the experiment on Staphylococcus aureus [17], 128 µM (≈ 186 µg/mL); in the experiment with Pseudomonas aeruginosa [18], over 128 µM; with Staphylococcus aureus [19], under 1 µM; with Klebsiella pneumoniae [20] it was over 128 µM; in the experiment with Escherichia coli [21], 128 µM (≈ 186 µg/mL).
